Drawing on PubChem BioAssay AID1053170 (The Scripps Research Institute Molecular Screening Center, 2014), this text covers IC50 for 32 compounds.

The source made the active and inactive calls. No rule for the calls is given here. Where only a bound is given, the exact number is not on record here.

This test deals with E3 ubiquitin-protein ligase UHRF1 (Homo sapiens) (UniProt Q96T88). Nature of the test: UHRF1 methylated DNA binding inhibitors, late-stage follow-up, counter-screen for MBD2 inhibitor project, biochemical, TR-FRET, human UHRF1, dose response (AID 1053170). (Counterscreens check selectivity or assay interference.)
Chain of E3 ubiquitin-protein ligase UHRF1 (Homo sapiens) (Q96T88 whole entry, looked up): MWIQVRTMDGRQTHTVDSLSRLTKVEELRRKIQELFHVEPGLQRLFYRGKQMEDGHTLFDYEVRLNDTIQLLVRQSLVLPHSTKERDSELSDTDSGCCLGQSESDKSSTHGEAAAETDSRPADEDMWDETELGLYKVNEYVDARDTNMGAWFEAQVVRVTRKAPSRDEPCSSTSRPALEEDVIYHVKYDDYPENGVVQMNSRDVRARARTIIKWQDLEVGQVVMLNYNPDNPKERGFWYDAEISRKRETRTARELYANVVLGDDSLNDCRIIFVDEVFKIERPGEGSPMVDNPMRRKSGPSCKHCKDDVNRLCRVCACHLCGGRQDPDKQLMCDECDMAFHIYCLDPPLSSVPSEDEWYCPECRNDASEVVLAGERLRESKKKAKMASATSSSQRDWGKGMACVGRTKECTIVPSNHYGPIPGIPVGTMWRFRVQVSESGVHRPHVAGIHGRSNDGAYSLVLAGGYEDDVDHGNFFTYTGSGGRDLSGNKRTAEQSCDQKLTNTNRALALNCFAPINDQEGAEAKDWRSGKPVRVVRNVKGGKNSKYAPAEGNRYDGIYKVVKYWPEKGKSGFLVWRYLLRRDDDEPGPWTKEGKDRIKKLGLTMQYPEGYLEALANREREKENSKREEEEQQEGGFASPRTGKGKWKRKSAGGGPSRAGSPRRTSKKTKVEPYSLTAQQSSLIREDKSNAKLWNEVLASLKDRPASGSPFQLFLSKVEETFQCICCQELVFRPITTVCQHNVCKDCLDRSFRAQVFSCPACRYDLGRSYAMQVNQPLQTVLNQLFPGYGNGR
Take `O=C(CSc1ccccn1)Nc1ccc(N2CCOCC2)cc1`: the IC50 is > 43.8 µM (inactive).

`COc1ccccc1C(=O)COC(=O)c1ccc(N(C)C)cc1`: the IC50 was > 43.8 µM (inactive). `O=C(CSc1nc(-c2ccccc2)c(-c2ccccc2)o1)N1CCOCC1`: the IC50 was > 43.8 µM (inactive). In the case of `COc1ccc(NC(=O)Cn2cc(C(C)=O)c3ccccc32)cc1`, the IC50 is > 43.8 µM (inactive). The result for `CSc1ccc(OC2CCCCC2NS(=O)(=O)c2ccc(Cl)cc2)cc1` (configuration not stated) reads > 43.8 µM (inactive). As to `CCOc1ccc(S(=O)(=O)N2CCCC(C(=O)NCC3CCCO3)C2)cc1Cl` (configuration not stated), the IC50 was > 43.8 µM (inactive). The result for `CCc1cccc(OCC(=O)Nc2ccc(S(=O)(=O)Nc3ccccn3)cc2)c1` reads > 43.8 µM (inactive). The result for `COc1ccc(NC(=O)COC(=O)CCc2ccc(S(=O)(=O)N3CCOCC3)cc2)cc1Cl` reads > 43.8 µM (inactive); that for `N=C1C(c2nc3ccccc3s2)=C(O)CN1NC(=O)c1c[nH]c2ccccc12`, > 43.8 µM (inactive); that for `COc1ccc(NC(=O)CN2CCN(c3ccccc3C)CC2)cc1`, > 43.8 µM (inactive). With `Cc1cc(C)n2nc(CC(=O)NCc3ccc(F)cc3)nc2n1` the figure was > 43.8 µM (inactive); with `CCOC(=O)c1oc2ccc(CNC(C)(C)C)c(Cl)c2c1C`, > 43.8 µM (inactive). In the case of `Cc1cc2[nH]c3c4ccccc4nc(C)c3c2cc1C`, the IC50 result was “inactive”. The result for `O=C(Nc1ccc(OCc2ccccc2)cc1)c1ccccc1` reads > 43.8 µM (inactive).

Consider `Cc1c2cnn(CC(=O)Nc3c(F)c(F)cc(F)c3F)c(=O)c2c(C)n1Cc1ccccc1F`, for which the IC50 entry was “inactive”.

Regarding `CSc1ccc(OC2CCCCC2NS(=O)(=O)c2ccccc2)cc1` (configuration not stated), the IC50 was > 43.8 µM (inactive). For the compound `CCCCn1c(NC(C)CC)nc2c1c(=O)[nH]c(=O)n2C` (configuration not stated), the IC50 was > 43.8 µM (inactive).

As to `CC(C)C(=O)Nc1nnc(SCC(=O)NC2CCCC2)s1`, the IC50 is > 43.8 µM (inactive).

In the case of `CCOC(=O)c1cnc2c(ccc3ccccc32)c1NCCCN(C)C`, the IC50 result is “inactive”. For the compound `Cc1ccc(Cl)cc1N1CCN(S(=O)(=O)c2ccc3c(c2)NC(=O)C(C)C(=O)N3)CC1` (configuration not stated), the IC50 was > 43.8 µM (inactive).

As to `c1ccc2c(c1)C1=NCCN1c1ccccc1-2`, the IC50 result was “inactive”. Take `CN(C)CCNc1ccc(CO)c2sc3ccc(O)cc3c(=O)c12`: the IC50 was > 43.8 µM (inactive). The result for `COc1cccc2nc3c(C(=O)NCCN(C)C)cccc3cc12` reads > 43.8 µM (inactive); that for `COc1ccc(C(=O)NCCN(C)C)c2nc3ccccc3cc12`, “inactive”; that for `CC(C)n1nc(C(=O)Nc2nc3ccccc3[nH]2)c2ccccc2c1=O`, > 43.8 µM (inactive). With `CCOC(=O)c1ccc(NC(=O)COc2ccc(CNCCO)cc2OCC)cc1` the figure was > 43.8 µM (inactive).

For `Clc1ccc2c(c1)-c1ccccc1C1=NCCN12`, the IC50 entry was “inactive”. With `CN(C)CCNC(=O)c1cccc2[nH]c(-c3ccncc3)nc12` the entry was “inactive”; with `Cc1ccc(NCCN(C)C)c2c(=O)c3cc(O)ccc3sc12`, “inactive”.

Consider `COc1ccc2c(=O)c3c(=O)n(-c4ccccc4)c(-c4ccc(C)cc4)nc3oc2c1`, for which the IC50 was > 43.8 µM (inactive). The result for `COc1ccc(C(=O)N2CCC(C(=O)Nc3ccc(C)cc3)CC2)cc1` reads > 43.8 µM (inactive); that for `CC(=O)N(c1ccccc1)c1nc(/C=C/C(=O)Nc2c(C)cc(C)cc2C)cs1`, > 43.8 µM (inactive).

For orientation: IC50 means the concentration at which inhibition is half-maximal.
